Source: publication PMC10817174, “Integrated drug response prediction models pinpoint repurposed drugs with effectiveness against rhabdomyosarcoma” (PLOS ONE, 2024)

B1: rTRAIL: GDSC anti-cancer compound (protein, UniProt P50591 1-281, looked up)
Tumor necrosis factor ligand …: MAMMEVQGGPSLGQTCVLIVIFTVLLQSLCVAVTYVYFTNELKQMQDKYSKSGIACFLKEDDSYWDPNDEESMNSPCWQVKWQLRQLVRKMILRTSEETISTVQEKQQNISPLVRERGPQRVAAHITGTRGRSNTLSSPNSKNEKALGRKINSWESSRSGHSFLSNLHLRNGELVIHEKGFYYIYSQTYFRFQEEIKENTKNDKQMVQYIYKYTSYPDPILLMKSARNSCWSKDAEYGLYSIYQGGIFELKENDRIFVSVTNEHLIDMDHEASFFGAFLVG

What was measured:
[1] = tested on: SJCRH30 (human alveolar rhabdomyosarcoma) cells; test: MTT cell viability assay in SJCRH30 cells; type: cell-based; conditions: 24 h
Source text: (§1) The RD (human embryonal rhabdomyosarcoma) and CCD-18Co (human colon fibroblast) cell lines were purchased from the Korean Cell Line Bank (KCLB). SJCRH30 (human alveolar rhabdomyosarcoma) cell line was purchased from the American Type Culture Collection (ATCC). RD and CCD-18Co cells were maintained in Dulbecco’s Modified Eagle’s Medium (DMEM; Gibco) supplemented with 10% fetal bovine serum (FBS; Gibco) and 1% penicillin/streptomycin (P/S; Gibco). SJCRH30 cells were maintained in Roswell Park Memorial Institute medium (RPMI 1640, Gibco) supplemented with 10% FBS and 1% P/S. Cells were grown in a humidified chamber containing 5% CO2 at 37°C. Cell line authentication was performed by short tandem repeat profile using PowerPlex® 18D system (Promega Corporation) and sequencing apparatus Applied Biosystems 3130xl Genetic Analyzer (Applied Biosystem) according to manufacturer’s protocol.
(§2) SJCRH30, RD, and CCD-18Co cells were seeded at 2 × 10^4 cells/well in 96-well plates. The candidate drugs were treated for 24 h. AZ628, BIX02189, fedratinib, nutlin-3a, VX-11e, SB590885, NSC207895, tubastatin A, CX-5461, navitoclax, GSK1070916 and the FDA-approved drug library were purchased from Selleckchem. GW.44175 was purchased from Cayman chemical. MTT (3-(4,5-Dimethylthiazol-2-yl)-2,5-Diphenyltetrazolium bromide, Sigma) cell viability detection reagent diluted in serum free medium was added to each well and incubated for 2 h at 37°C. The supernatant was removed, and 50 μL DMSO was added to dissolve the precipitate. Absorbance was measured at 570 nm using a Molecular Devices VersaMax microplate reader and SoftMax® Pro 5 software. IC50 was calculated with GraphPad Prism 7 software.

[2] = tested on: CCD-18Co (human colon fibroblast) cells; test: MTT cell viability assay in normal control cells; type: cell-based; conditions: Homo sapiens, CCD-18Co; normal cell control, 24 h, MTT
Source text: as §1, §2

GDSC-SJCRH30 cell line = conditions: Table S2, published drug response ref Iorio et al. (2016); cited from earlier work
GDSC-RD cell line = conditions: Table S2, published drug response ref Iorio et al. (2016); cited from earlier work

Molecule | anti-proliferation / anti-cancer activity in SJCRH30 cells ([1]; in words) | IC50 ([1]; Homo sapiens, Rhabdomyosarcoma cell, SJ-S drugs, SJCRH30 cells, read-out: IC50(μM) RMS) [µM] | IC50 [2] [µM] | Iorio_SJCRH30 (GDSC-SJCRH30 cell line) | Iorio_RD (GDSC-RD cell line)
CC1(C)CCC(c2ccc(Cl)cc2)=C(CN2CCN(c3ccc(C(=O)NS(=O)(=O)c4ccc(N[C@H](CCN5CCOCC5)CSc5ccccc5)c(S(=O)(=O)C(F)(F)F)c4)cc3)CC2)C1 [Navitoclax] | higher anti-cancer activity | 0.764 | 0.319 | R | –
COc1cc(O)c2c(c1)/C=C/C[C@H](O)[C@H](O)C(=O)/C=C\C[C@H](C)OC2=O [Oxozeaenol] | – | – | – | R | S
C=CCc1cccc(/C=N/NC(=O)CN2CCN(Cc3ccccc3)CC2)c1O [PAC-1] | – | – | – | R | R
CN(c1ncccc1CNc1nc(Nc2ccc3c(c2)CC(=O)N3)ncc1C(F)(F)F)S(C)(=O)=O [PF-562271] | – | – | – | R | R
CCc1cncnc1N1CCN(Cc2nc3ccc(C(F)(F)F)cc3[nH]2)CC1 [PF-4708671] | – | – | – | R | R
COc1ccccc1S(=O)(=O)Nc1ccc2c(c1)CN(C)C(=O)N2 [PFI-1] | – | – | – | R | R
CC(C)CC(=O)Nc1[nH]nc2c1CN(C(=O)C1CCN(C)CC1)C2(C)C [PHA-793887] | – | – | – | R | R
Oc1cccc(-c2nc(N3CCOCC3)c3oc4ncccc4c3n2)c1 [PI-103] | – | – | – | R | R
CC(=O)Nc1nc(C)c(-c2ccc(Cl)c(S(=O)(=O)NCCO)c2)s1 [PIK-93] | – | – | – | R | R
Cc1ccc(Nc2nccc(N(C)c3ccc4c(C)n(C)nc4c3)n2)cc1S(N)(=O)=O [Pazopanib] | – | – | – | R | R
[H]/N=C(/N)N/C(=N/[H])NCCc1ccccc1 [Phenformin] | – | – | – | R | R
C=CC(=O)Nc1cc(-n2c(=O)ccc3cnc4ccc(-c5cn[nH]c5)cc4c32)ccc1C [QL-X-138] | – | – | – | R | R
C=CC(=O)Nc1cc(NC(=O)c2ccc(C)c(NC(=O)c3ccno3)c2)cc(C(F)(F)F)c1 [QL-XI-92] | – | – | – | S | S
OC[C@H](Cc1ccccc1)Nc1nc(Oc2ccc3c(c2)CCC3)nc2c1ncn2Cc1ccc(-c2ccccc2)cc1 [QS11] | – | – | – | R | R
N#CC[C@H](C1CCCC1)n1cc(-c2ncnc3[nH]ccc23)cn1 [Ruxolitinib] | – | – | – | R | R
Cc1cccc(-c2[nH]c(C(C)(C)C)nc2-c2ccc3nccnc3c2)n1 [SB52334] | – | – | – | R | R
Cc1cccc(-c2[nH]c(C(C)(C)C)nc2-c2ccc3c(c2)OCO3)n1 [SB-505124] | – | – | – | R | R
Cc1ccc(C(=O)N(CCCN)[C@@H](c2nc3cc(Cl)ccc3c(=O)n2Cc2ccccc2)C(C)C)cc1 [SB-715992] | – | – | – | R | R
CC(C)N(CCCNC(=O)Nc1ccc(C(C)(C)C)cc1)C[C@H]1O[C@@H](n2cc(Br)c3c(N)ncnc32)[C@H](O)[C@@H]1O [SGC0946] | – | – | – | R | R
CCc1c2c(nc3ccc(O)cc13)-c1cc3c(c(=O)n1C2)COC(=O)[C@]3(O)CC [SN-38] | – | – | – | R | R
CC1(C)CC(=O)c2c(C(F)(F)F)nn(-c3ccc(C(N)=O)c(N[C@H]4CC[C@H](O)CC4)c3)c2C1 [SNX-2112] | – | – | – | R | R
Cc1cccc(Nc2nc(-c3ccncc3)cs2)c1 [STF-62247] | – | – | – | R | R
CC(C)=CC[C@@H](O)C1=CC(=O)c2c(O)ccc(O)c2C1=O [Shikonin] | – | – | – | R | R
O=S(=O)(c1ccccc1)N(CC(F)(F)F)c1ccc(C(O)(C(F)(F)F)C(F)(F)F)cc1 [T0901317] | – | – | – | R | R
CCc1nc(-c2cccc(C)c2)c(-c2ccnc(NC(=O)c3ccccc3)c2)s1 [TAK-715] | – | – | – | R | R
CN(C)C/C=C/C(=O)Nc1ccc(C(=O)Nc2cccc(Nc3ncc(Cl)c(-c4c[nH]c5ccccc45)n3)c2)cc1 [THZ-2-102-1] | – | – | – | R | R

Molecule | anti-proliferation / anti-cancer activity in SJCRH30 cells ([1]; in words) | IC50 ([1]; Homo sapiens, Rhabdomyosarcoma cell, SJ-S drugs, SJCRH30 cells, read-out: IC50(μM) RMS) [µM] | IC50 [2] [µM] | Iorio_SJCRH30 (GDSC-SJCRH30 cell line) | Iorio_RD (GDSC-RD cell line)
NC(=O)Nc1sc(-c2ccc(F)cc2)cc1C(N)=O [TPCA-1] | – | – | – | R | R
CC(C)c1ccccc1Cc1cc(C(=O)Nc2ccc(S(=O)(=O)c3ccccc3C(C)(C)C)cc2)c(O)c(O)c1O [TW-37] | – | – | – | R | R
CC/C(=C(\c1ccccc1)c1ccc(OCCN(C)C)cc1)c1ccccc1 [Tamoxifen] | – | – | – | R | R
Cn1nnc2c(C(N)=O)ncn2c1=O [Temozolomide] | – | – | – | R | R
C/C=C(/C)C(=O)O[C@H]1C(C)=C2[C@H]([C@@H]1OC(=O)CCCCCCC)[C@@](C)(OC(C)=O)C[C@H](OC(=O)CCC)[C@@]1(O)[C@H]2OC(=O)[C@@]1(C)O [Thapsigargin] | – | – | – | R | R
Cn1cncc1[C@@](N)(c1ccc(Cl)cc1)c1ccc2c(c1)c(-c1cccc(Cl)c1)cc(=O)n2C [Tipifarnib] | – | – | – | R | R
CC(=O)Nc1cccc(-n2c(=O)n(C3CC3)c(=O)c3c(Nc4ccc(I)cc4F)n(C)c(=O)c(C)c32)c1 [Trametinib] | – | – | – | R | S
CN1CCc2c(c3ccccc3n2Cc2ccc(C(=O)NO)cc2)C1 [Tubastatin-A] | – | – | – | R | S
O=C(c1ccc(C(=O)N2CCC(N3CCCC3)CC2)c(Nc2ccccc2)c1)N1CCC(N2CCCC2)CC1 [UNC1215] | – | – | – | S | R
CCCC(=O)OCc1ccc(OC(=O)/C=C(C)/C=C/C=C(C)/C=C/C2=C(C)CCCC2(C)C)cc1 [VNLG-124] | – | – | – | R | R
CCC1=C[C@@H]2CN(C1)Cc1c([nH]c3ccccc13)[C@@](C(=O)OC)(c1cc3c(cc1OC)N(C)[C@H]1[C@@](O)(C(=O)OC)[C@H](OC(C)=O)[C@]4(CC)C=CCN5CC[C@]31[C@@H]54)C2 [Vinorelbine] | – | – | – | R | R
Oc1nc(-c2ccc(C(F)(F)F)cc2)nc2c1CSCC2 [XAV-939] | – | – | – | R | R
COc1cc2nccc(Oc3ccc(NC(=O)C4(C(=O)Nc5ccc(F)cc5)CC4)cc3)c2cc1OC [XL-184] | – | – | – | R | R
COc1cc2c(Oc3ccc(NC(=O)C4(C(=O)Nc5ccc(F)cc5)CC4)cc3F)ccnc2cc1OCCCN1CCOCC1 [XL-880] | – | – | – | R | R
COc1cc(N2CCN(C)CC2)ccc1Nc1nc(N)c(C(=O)c2c(Cl)cccc2Cl)s1 [XMD14-99] | – | – | – | R | R
C[C@@H](N)c1ccc(C(=O)Nc2ccnc3[nH]ccc23)cc1 [Y-39983] | – | – | – | R | R
COc1ccc(C(=O)CC2(O)C(=O)Nc3c(Cl)ccc(Cl)c32)cc1 (centres unmarked) [YK-4-279] | – | – | – | R | R
COCCn1c2c([n+](Cc3cnccn3)c1C)C(=O)c1ccccc1C2=O [YM155] | – | – | – | R | R
Nc1ccc(C(=O)Nc2cccc(-c3nc(N4CCOCC4)c4oc5ncccc5c4n3)c2)cn1 [YM201636] | – | – | – | R | R
FC(F)c1nc2ccccc2n1-c1nc(N2CCOCC2)nc(N2CCOCC2)n1 [ZSTK474] | – | – | – | R | R
COc1nc(C)cnc1NS(=O)(=O)c1cccnc1-c1ccc(-c2nnco2)cc1 [Zibotentan] | – | – | – | R | R
COc1cc(/C=C/C(=O)N2CCC=CC2=O)cc(OC)c1OC [piperlongumine] | – | – | – | R | S
CCT007093 | – | – | – | R | R
I-BET-151 | – | – | – | R | R
B1 | – | – | – | R | S
